{"source": "ChEMBL document CHEMBL1201862", "about": "“PubChem BioAssay data set” (2004)", "key": {"Albumin": {"biological_target": "Albumin (Bos taurus, UniProt P02769)", "sequence (P02769 whole entry)": "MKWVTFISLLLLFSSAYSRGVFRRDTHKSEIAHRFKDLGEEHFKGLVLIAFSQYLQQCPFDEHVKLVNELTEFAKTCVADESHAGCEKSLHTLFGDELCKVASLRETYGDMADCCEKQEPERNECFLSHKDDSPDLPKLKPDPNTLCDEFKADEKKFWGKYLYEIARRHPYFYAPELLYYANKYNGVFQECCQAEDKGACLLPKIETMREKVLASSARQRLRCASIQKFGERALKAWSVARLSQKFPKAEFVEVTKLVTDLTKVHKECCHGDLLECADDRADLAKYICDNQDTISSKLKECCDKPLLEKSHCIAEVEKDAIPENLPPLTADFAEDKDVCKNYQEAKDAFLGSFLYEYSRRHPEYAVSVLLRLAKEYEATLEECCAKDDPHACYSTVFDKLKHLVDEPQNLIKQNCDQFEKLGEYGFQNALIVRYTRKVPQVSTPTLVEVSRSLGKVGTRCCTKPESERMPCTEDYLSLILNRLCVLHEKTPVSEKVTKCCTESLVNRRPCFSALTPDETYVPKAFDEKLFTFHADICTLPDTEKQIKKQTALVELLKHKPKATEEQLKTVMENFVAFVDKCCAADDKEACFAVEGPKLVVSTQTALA", "experiment": "Counterscreen for inhibitors of T-cell receptor (TCR)-CD3 interaction: Fluorescence-based biochemical high throughput dose response assay to identify inhibitors of T-cell receptor (TCR)-CD3 interaction using a TAMRA-labeled BSA probe.", "assay_type": "functional"}, "[1]": {"biological_target": "T1, Methionyl-tRNA synthetase, putative (Trypanosoma brucei brucei, UniProt Q38C91)", "T1 sequence (Q38C91 whole entry)": "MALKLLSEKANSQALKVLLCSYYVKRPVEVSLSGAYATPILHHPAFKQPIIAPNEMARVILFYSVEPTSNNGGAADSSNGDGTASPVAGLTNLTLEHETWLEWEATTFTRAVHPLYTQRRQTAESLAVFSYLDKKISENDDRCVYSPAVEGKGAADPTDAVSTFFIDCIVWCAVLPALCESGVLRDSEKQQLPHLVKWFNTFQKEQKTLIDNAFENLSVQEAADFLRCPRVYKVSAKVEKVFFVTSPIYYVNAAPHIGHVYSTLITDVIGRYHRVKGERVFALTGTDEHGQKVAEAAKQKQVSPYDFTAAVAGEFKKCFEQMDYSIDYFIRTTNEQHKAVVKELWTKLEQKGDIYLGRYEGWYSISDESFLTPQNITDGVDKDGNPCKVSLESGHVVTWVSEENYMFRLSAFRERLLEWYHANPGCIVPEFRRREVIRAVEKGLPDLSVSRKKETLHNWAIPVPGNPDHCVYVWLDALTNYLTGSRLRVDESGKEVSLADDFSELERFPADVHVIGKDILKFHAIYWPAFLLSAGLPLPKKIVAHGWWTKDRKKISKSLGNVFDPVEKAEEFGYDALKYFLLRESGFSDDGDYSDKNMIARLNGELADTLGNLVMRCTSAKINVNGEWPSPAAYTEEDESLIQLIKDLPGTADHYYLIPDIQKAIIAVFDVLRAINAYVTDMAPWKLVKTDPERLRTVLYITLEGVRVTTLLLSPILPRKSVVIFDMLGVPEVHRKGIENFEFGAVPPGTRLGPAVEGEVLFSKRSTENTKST", "assay_type": "functional, Trypanosoma brucei brucei strain 927/4 GUTat10.1"}, "[2]": {"experiment": "Counterscreen for inhibitors of Trypanosoma brucei methionyl tRNA synthetase (MetRS): Luminescence-based cell-based high throughput dose response assay to identify compounds that are cytotoxic to Jurkat human T lymphocyte cells.", "assay_type": "functional"}, "[3]": {"biological_target": "T1, Methionyl-tRNA synthetase, putative", "assay_type": "functional, Trypanosoma brucei brucei strain 927/4 GUTat10.1", "remark": "listed apart in the source"}, "[4]": {"biological_target": "Eukaryotic translation initiation factor 4E (Mus musculus, UniProt P63073)", "sequence (P63073 whole entry)": "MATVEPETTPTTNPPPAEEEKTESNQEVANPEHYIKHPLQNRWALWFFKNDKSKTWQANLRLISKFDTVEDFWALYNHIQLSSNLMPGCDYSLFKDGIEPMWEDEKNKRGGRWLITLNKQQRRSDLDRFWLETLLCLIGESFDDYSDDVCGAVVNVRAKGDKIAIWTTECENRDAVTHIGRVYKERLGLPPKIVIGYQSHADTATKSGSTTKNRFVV", "experiment": "blockers of eIF4G binding by eIF4E – biochemical, TR-FRET, dose response (AID 855);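 note: potency for disrupting eIF4E binding to eIF4GI seen as loss of FRET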", "assay_type": "functional"}, "[5]": {"biological_target": "T2, Long-chain-fatty-acid--AMP ligase FadD28 (Mycobacterium tuberculosis, UniProt P9WQ59)", "T2 sequence (P9WQ59 whole entry)": "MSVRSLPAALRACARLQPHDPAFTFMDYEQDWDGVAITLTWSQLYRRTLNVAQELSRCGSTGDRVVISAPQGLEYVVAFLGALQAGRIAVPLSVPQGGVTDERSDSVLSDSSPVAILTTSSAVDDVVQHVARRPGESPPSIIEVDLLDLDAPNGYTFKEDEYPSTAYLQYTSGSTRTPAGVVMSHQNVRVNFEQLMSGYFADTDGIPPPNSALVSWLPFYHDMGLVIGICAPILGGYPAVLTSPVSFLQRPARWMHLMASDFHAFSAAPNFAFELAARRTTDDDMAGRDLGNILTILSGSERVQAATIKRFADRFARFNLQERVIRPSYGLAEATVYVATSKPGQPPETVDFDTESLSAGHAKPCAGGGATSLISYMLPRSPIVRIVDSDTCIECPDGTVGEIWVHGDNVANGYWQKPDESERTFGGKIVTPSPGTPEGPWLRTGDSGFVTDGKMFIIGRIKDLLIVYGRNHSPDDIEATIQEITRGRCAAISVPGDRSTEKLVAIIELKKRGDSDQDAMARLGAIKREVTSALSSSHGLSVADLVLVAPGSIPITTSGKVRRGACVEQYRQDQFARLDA", "experiment": "Fluorescence polarization aasay to screen for inhibitors that compete for the binding of FadD28 to a bisubstrate Measured in Biochemical System Using Plate Reader - 2147-01_Inhibitor_Dose_CherryPick_Activity.", "assay_type": "functional, Mycobacterium tuberculosis H37Rv"}, "Galanin receptor type 3": {"biological_target": "T3, Galanin receptor type 3 (Homo sapiens, UniProt O60755)", "T3 sequence (O60755 whole entry)": "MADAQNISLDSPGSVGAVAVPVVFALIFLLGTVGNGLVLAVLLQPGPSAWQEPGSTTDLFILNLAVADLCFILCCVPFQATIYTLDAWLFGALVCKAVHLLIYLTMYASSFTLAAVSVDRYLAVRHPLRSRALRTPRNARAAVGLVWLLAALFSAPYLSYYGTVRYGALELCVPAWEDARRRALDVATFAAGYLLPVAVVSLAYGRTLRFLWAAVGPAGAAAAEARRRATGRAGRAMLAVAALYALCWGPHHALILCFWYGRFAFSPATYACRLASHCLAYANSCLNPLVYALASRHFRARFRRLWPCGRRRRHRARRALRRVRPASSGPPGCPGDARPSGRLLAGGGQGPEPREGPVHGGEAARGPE", "experiment": "Fluorescence-based cell-based primary high throughput dose response assay to identify antagonists of the Galanin Receptor 3 (GalR3).", "assay_type": "functional"}, "cells": {"experiment": "cells", "assay_type": "functional, cell-based", "settings": "HEK-CNG"}, "[6]": {"experiment": "A cytotoxicity screen of small molecule inhibitors of the PhoP region in Salmonella typhi identified in the primary screen. [Related pubchem assays: 1850, 1864, 1985 ]", "assay_type": "functional"}, "[7]": {"biological_target": "T4, Fructose-bisphosphate aldolase (Mycobacterium tuberculosis, UniProt P9WQA3)", "T4 sequence (P9WQA3 whole entry)": "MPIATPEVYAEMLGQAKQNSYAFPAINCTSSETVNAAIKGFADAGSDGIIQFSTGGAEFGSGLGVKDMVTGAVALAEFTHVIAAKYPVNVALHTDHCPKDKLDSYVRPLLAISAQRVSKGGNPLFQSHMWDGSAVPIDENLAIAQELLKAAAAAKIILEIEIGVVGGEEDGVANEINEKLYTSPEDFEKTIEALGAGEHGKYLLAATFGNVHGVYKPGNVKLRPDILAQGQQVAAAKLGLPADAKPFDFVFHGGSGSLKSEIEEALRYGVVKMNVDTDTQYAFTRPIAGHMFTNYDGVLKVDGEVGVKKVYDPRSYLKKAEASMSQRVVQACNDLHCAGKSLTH", "experiment": "Fluorescence-based biochemical high throughput dose response assay for inhibitors of the fructose-bisphosphate aldolase (FBA) of M. tuberculosis.", "assay_type": "functional"}, "Large T antigen": {"biological_target": "Large T antigen (Simian virus 40, UniProt P03070)", "sequence (P03070 whole entry)": "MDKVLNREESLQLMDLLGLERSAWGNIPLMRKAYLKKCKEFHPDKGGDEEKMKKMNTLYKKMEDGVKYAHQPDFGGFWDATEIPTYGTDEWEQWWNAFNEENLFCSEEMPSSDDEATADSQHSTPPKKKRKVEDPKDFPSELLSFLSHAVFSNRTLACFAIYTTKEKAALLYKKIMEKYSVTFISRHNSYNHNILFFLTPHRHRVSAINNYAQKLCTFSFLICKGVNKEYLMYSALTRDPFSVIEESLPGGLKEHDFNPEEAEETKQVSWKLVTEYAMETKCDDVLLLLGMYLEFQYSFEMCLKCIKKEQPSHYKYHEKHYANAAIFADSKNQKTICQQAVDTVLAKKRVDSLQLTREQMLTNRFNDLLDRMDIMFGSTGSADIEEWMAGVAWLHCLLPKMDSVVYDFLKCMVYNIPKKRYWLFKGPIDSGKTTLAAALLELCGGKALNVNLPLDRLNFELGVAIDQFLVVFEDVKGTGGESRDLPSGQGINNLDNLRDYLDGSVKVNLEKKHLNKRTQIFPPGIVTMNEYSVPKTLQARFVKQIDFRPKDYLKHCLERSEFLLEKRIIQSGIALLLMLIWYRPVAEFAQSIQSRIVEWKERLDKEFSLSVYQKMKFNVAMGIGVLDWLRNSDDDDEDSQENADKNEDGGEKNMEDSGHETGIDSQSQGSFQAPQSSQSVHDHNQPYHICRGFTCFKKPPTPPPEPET", "assay_type": "functional, Betapolyomavirus macacae"}, "[8]": {"biological_target": "T5, Sentrin-specific protease 8 (Homo sapiens, UniProt Q96LD8)", "T5 sequence (Q96LD8 whole entry)": "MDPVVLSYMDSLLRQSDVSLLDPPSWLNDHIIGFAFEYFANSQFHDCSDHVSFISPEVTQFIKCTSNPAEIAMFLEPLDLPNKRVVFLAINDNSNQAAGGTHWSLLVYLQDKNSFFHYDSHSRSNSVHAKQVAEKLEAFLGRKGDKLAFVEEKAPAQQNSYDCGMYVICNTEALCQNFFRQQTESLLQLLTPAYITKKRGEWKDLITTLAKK", "assay_type": "functional"}, "[9]": {"biological_target": "T5, Sentrin-specific protease 8", "assay_type": "functional", "remark": "listed apart in the source"}, "[10]": {"experiment": "NIH-3T3 fibroblast cytotoxicity, dose response, cytotoxicity control, cell-based, fluorescence, Alamar Blue, secondary assay (AID 2327);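 note: NIH-3T3 mouse fibroblasts cultured with fluconazole at 8 µg/mL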", "assay_type": "functional"}, "[11]": {"experiment": "fluconazole-exposed Candida albicans growth modulators – fluorescence, retest, confirmation (AID 2467)", "assay_type": "functional, cell-based"}, "[12]": {"biological_target": "Induced myeloid leukemia cell differentiation protein Mcl-1 (Homo sapiens, UniProt Q07820)", "sequence (Q07820 whole entry)": "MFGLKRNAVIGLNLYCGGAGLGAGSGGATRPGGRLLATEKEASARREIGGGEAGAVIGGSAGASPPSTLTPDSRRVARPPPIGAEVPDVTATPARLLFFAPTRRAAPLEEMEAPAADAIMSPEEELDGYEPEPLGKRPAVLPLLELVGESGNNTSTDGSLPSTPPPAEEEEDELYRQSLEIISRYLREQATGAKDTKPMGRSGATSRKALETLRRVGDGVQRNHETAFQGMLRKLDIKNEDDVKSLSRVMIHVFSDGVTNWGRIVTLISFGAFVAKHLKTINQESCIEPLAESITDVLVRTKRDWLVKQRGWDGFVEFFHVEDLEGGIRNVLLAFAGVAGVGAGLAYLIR", "assay_type": "functional"}, "[13]": {"biological_target": "T6, Mannose-6-phosphate isomerase (Homo sapiens, UniProt P34949)", "T6 sequence (P34949 whole entry)": "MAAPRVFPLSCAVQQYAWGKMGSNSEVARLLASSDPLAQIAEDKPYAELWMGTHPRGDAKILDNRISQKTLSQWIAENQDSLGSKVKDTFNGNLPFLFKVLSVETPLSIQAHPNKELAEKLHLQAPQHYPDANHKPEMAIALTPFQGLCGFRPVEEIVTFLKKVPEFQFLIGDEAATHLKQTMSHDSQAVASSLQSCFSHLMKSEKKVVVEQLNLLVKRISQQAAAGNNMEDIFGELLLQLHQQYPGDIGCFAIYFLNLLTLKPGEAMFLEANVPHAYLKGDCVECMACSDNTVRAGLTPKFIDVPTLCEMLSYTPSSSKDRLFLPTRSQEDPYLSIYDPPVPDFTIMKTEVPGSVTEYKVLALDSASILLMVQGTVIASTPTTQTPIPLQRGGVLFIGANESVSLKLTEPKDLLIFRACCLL", "experiment": "MPI inhibition at elevated mannose 6-phosphate – biochemical, fluorescence intensity, high mannose 6-phosphate, primary screen (AID 1220)"}, "Genome polyprotein": {"biological_target": "Genome polyprotein (dengue virus type 2, UniProt P29990)", "sequence (P29990 2492-3391 limits assumed)": "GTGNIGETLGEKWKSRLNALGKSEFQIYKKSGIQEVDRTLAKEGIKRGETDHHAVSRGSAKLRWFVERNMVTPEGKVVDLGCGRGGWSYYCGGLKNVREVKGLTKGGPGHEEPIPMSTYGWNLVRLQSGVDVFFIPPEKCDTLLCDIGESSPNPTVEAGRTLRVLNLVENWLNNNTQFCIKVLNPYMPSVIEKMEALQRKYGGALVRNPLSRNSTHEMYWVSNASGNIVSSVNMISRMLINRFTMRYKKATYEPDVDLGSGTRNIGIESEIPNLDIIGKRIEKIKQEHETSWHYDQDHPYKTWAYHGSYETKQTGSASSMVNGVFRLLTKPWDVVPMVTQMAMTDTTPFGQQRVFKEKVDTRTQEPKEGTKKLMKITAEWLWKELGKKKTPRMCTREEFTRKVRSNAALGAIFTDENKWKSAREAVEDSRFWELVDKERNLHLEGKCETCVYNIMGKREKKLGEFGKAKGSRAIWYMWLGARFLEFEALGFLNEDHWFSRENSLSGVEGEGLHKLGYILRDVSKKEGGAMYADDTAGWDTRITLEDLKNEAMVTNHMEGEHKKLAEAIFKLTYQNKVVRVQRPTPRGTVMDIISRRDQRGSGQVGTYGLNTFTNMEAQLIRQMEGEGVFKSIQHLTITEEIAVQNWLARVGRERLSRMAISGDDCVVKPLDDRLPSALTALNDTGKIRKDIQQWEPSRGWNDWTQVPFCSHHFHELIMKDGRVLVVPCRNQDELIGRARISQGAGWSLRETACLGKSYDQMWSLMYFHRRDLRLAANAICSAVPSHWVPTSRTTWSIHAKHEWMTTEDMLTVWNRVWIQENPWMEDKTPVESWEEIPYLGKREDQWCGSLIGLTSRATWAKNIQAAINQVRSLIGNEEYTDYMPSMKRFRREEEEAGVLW", "experiment": "flavivirus cap methylation enzyme inhibition – biochemical, confirmation dose response, primary screen (AID 588689)", "assay_type": "functional"}, "Caspase-6": {"biological_target": "T7, Caspase-6 (Homo sapiens, UniProt P55212)", "T7 sequence (P55212 whole entry)": "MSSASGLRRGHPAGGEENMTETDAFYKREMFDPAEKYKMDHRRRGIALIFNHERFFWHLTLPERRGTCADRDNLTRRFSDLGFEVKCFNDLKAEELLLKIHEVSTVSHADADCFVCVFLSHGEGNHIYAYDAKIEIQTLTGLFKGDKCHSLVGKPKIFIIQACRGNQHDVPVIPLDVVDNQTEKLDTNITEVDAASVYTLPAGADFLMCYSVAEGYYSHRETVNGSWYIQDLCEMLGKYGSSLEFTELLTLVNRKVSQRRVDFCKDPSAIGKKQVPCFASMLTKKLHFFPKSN", "experiment": "inhibition of CASP6 peptide cleavage – biochemical, VEID-R110 fluorescence, cherry-pick, dose response (AID 720632)"}}, "note": "The source made the active and inactive calls.", "data": [{"smiles": "Cc1cc(C)c2c(N)c(C(=O)NN)sc2n1", "values": [{"measurement": "IC50", "setting": "Albumin", "result": "> 94.1 µM (inactive)"}]}, {"smiles": "O=C(CSc1nc2cc3ccccc3cc2[nH]1)Nc1ccc(F)cc1", "values": [{"measurement": "IC50", "setting": "[1]", "result": "119 µM (inactive)"}, {"measurement": "IC50", "setting": "[2]", "result": "51.7 µM (inactive)"}, {"measurement": "IC50", "setting": "[3]", "result": "100 µM (inactive)"}]}, {"smiles": "COc1cccc(NC(=O)Nc2ccc(C(C)(C)C)cc2)c1", "values": [{"measurement": "IC50", "setting": "[4]", "result": "50 µM (inactive)"}, {"measurement": "AC50", "setting": "[5]", "result": "> 100 µM (inactive)"}]}, {"smiles": "O=C(COc1ccc(C(=O)c2ccccc2)cc1)Nc1cccnc1", "values": [{"measurement": "IC50", "setting": "Galanin receptor type 3", "result": "0.399 µM (active)"}, {"measurement": "EC50", "setting": "cells", "result": "> 29.9 µM (inactive)"}]}, {"smiles": "Cc1cc(-c2nc3ccccc3o2)c2ccccc2n1", "values": [{"measurement": "EC50", "setting": "[6]", "result": "> 50 µM (active)"}, {"measurement": "IC50", "setting": "[7]", "result": "2.96 µM (active)"}]}, {"smiles": "CC(=O)c1cccc(NC(S)=NC2CCCCCCC2)c1", "values": [{"measurement": "AC50", "setting": "[5]", "result": "> 100 µM (inactive)"}]}, {"smiles": "CCOc1ccc(N2Nc3[nH]nc(N)c3N2)cc1", "values": [{"measurement": "IC50", "setting": "Large T antigen", "result": "18 µM (active)"}, {"measurement": "IC50", "setting": "[8]", "result": "40.6 µM (active)"}, {"measurement": "IC50", "setting": "[9]", "result": "52.3 µM (active)"}]}, {"smiles": "COc1cc2c(cc1N=C(S)Nc1cccc(C)c1)oc1ccccc12", "values": [{"measurement": "IC50", "setting": "[7]", "result": "5.82 µM (active)"}]}, {"smiles": "C[C@@H]1C=C(C(=O)NCc2nc3ccccc3[nH]2)O[C@H](OCc2ccc(CO)cc2)C1", "values": [{"measurement": "IC50", "setting": "[1]", "result": "2.04 µM (active)"}, {"measurement": "IC50", "setting": "[2]", "result": "83.3 µM (inactive)"}, {"measurement": "IC50", "setting": "[3]", "result": "1.47 µM (active)"}]}, {"smiles": "OC(c1cc(Cl)cc(Cl)c1)c1nc(-c2ccccc2F)c[nH]1", "note": "(centres undefined)", "values": [{"measurement": "IC50", "setting": "[1]", "result": "9.87 µM (active)"}, {"measurement": "IC50", "setting": "[2]", "result": "74.4 µM (inactive)"}, {"measurement": "IC50", "setting": "[3]", "result": "6.33 µM (active)"}]}, {"smiles": "N#CCC(=O)N/N=C/c1ccc(N2N=C(c3ccccc3)CC2c2ccccc2)cc1", "note": "(centres undefined)", "values": [{"measurement": "IC50", "setting": "[7]", "result": "0.198 µM (active)"}]}, {"smiles": "O=C(CCN1CCN(c2ccccc2)CC1)N/N=C/c1ccc(O)c(O)c1O", "values": [{"measurement": "EC50", "setting": "[10]", "result": "> 150 µM (inactive)"}, {"measurement": "EC50", "setting": "[11]", "result": "3.04 µM (active)"}, {"measurement": "IC50", "setting": "[12]", "result": "6.59 µM (active)"}, {"measurement": "IC50", "setting": "[13]", "result": "> 50 µM (not active)"}, {"measurement": "IC50", "setting": "Genome polyprotein", "result": "30.1 µM (active)"}, {"measurement": "IC50", "setting": "Albumin", "result": "> 94.1 µM (inactive)"}, {"measurement": "AC50", "setting": "Caspase-6", "result": "1.11 µM (active)"}]}]}
